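Protocol summary: plate cells (96-well), add compound at 5 concentrations, incubate 48 h, interpolate endpoints linearly. The concentration for full growth arrest is given as TGI.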
Columns and labels:
Assay in all cases: DTP human tumour cell line panel, 48 h
786-0 renal = test system: 786-0 renal
A498 renal = test system: A498 renal
ACHN renal = test system: ACHN renal
CAKI-1 renal = test system: CAKI-1 renal
HCC-2998 colon = test system: HCC-2998 colon
HCT-15 colon = test system: HCT-15 colon
K-562 leukemia = test system: K-562 leukemia
NCI-H23 lung = test system: NCI-H23 lung
SN12C renal = test system: SN12C renal
UACC-257 melanoma = test system: UACC-257 melanoma

Row | SMILES | TGI (786-0 renal) [µM] | TGI (A498 renal) [µM] | TGI (ACHN renal) [µM] | TGI (CAKI-1 renal) [µM] | TGI (HCC-2998 colon) [µM] | TGI (HCT-15 colon) [µM] | TGI (K-562 leukemia) [µM] | TGI (NCI-H23 lung) [µM] | TGI (SN12C renal) [µM] | TGI (UACC-257 melanoma) [µM]
1 | C=C(CCC(=O)N(CCc1c[nH]c2ccccc12)C(=O)c1ccccc1CSCC)C(=O)OC | > 100 | > 100 | > 100 | > 100 | > 95.4 | > 100 | > 100 | > 100 | > 100 | > 100
2 | Clc1ccc(-c2nn3c(COc4ccc(OCc5nnc6sc(-c7ccc(Cl)cc7)nn56)c(Cl)c4)nnc3s2)cc1 | 26.6 | 71.1 | > 100 | 75.1 | 44.9 | > 100 | > 100 | 62.3 | > 100 | > 100
3 | CC1CC[C@@]2(OC1)OC1C[C@H]3[C@@H]4CC=C5C[C@@H](OC6OC(CO)C(OC7OC(CO)C(O)C(O)C7O)C(O)C6OC6OC(C)C(O)C(O)C6O)CC[C@]5(C)[C@H]4CC[C@]3(C)C1[C@@H]2C (stereo not given in full) | 0.88 | 1.32 | 4.4 | 2.71 | 0.89 | 6.95 | 1.09 | 2.57 | 1.52 | 1.02
4 | c1csc(-c2cc(-c3ccsc3)cs2)c1 | > 100 | > 100 | > 100 | > 100 | > 100 | > 100 | > 100 | 93.8 | > 100 | > 100
5 | CC(C)(C)OC(=O)N1CCC2(CC1)C(=O)NCN2c1ccccc1 | > 100 | > 100 | > 100 | > 100 | > 100 | > 100 | > 100 | > 100 | > 100 | > 100
6 | CCOC1OC(C)(C=C(C#N)C#N)CCC1C (stereo not given) | > 89.2 | 51 | > 100 | 96.2 | > 74.3 | > 71.2 | 56.8 | > 100 | > 86.6 | > 100
7 | C[N+](C)([O-])C12CC3CC(CC(C3)C1)C2 | > 100 | 67.7 | > 100 | > 100 | > 100 | > 100 | > 100 | > 100 | > 100 | > 100
8 | CSC1=C(C)C(/C=N/Nc2ccc([N+](=O)[O-])cc2)=C(C)N(c2ccccc2)S1(=O)=O | > 100 | > 100 | > 100 | > 100 | > 100 | > 100 | > 100 | > 100 | > 100 | > 100
9 | CC1OC23CCCCC2C(C#N)(C#N)C1(C#N)C(=N)O3 (stereo not given) | 28.6 | 61.6 | 42.8 | 19.8 | 50.1 | 37.6 | > 100 | 52.7 | 30.1 | 37.6
10 | COc1cc(-c2cc(OC)c(OC)c3ccc(Br)cc23)c2cc(Br)ccc2c1OC | 34.2 | 44.9 | 51.4 | > 100 | 92 | > 100 | 77.8 | 45 | 81.6 | 92.1
11 | COC1=C(OC)C(=O)C(Cc2c(-c3ccccc3)nc3sc(Cl)cn23)=C(C)C1=O | 41.8 | 47.2 | 30.7 | 50.3 | 46.6 | 36.1 | 52.4 | 35.8 | 30.4 | 29.9
